Key:
ACAT [1] = assay: ACAT activity, rat liver microsomes (method of Chautan et al.); format: biochemical; conditions: radiolabelled precursor, cholesteryl-oléate formed quantified, read-out: microsomes CI50
Excerpt: (§1) Les expérimentations utilisent la méthode de Chautan M. et coll., (Anal. Biochem. 1988) afin de déterminer l'activité ACAT. Les activités sont exprimées en concentrations inhibitrices à 50% (CI50), l'unité est le nM. Deux types de préparations enzymatiques ont été utilisés pour analyser l'activité putative des composés : microsomes hépatiques de rat et cellules humaines intactes HepG2. Les microsomes sont obtenus à partir de fractionnement subcellulaire utilisant une étape d'homogénéisation puis une étape d'ultracentrifugation. Le dosage de l'activité ACAT est réalisé par incubation des microsomes hépatiques ou des cellules avec le composé d'intérêt ainsi que le précurseur radiomarqué. La séparation du produit de la réaction à partir du milieu d'incubation acellulaire ou cellulaire est réalisée par élution sur colonne de silice; le cholesteryl-oléate formé est ensuite quantifié en radioanalyse.

ACAT [2] = assay: ACAT activity, intact HepG2 cells (method of Chautan et al.); format: cell-based, humaines
Excerpt: as §1

ACAT [3] = assay: ACAT inhibition in vivo: plasma cholesterol in rats on a hypercholesterolemic diet; conditions: oral route, 4 days of hypercholesterolemic diet with simultaneous treatment, plasma cholesterol on day 5 (colorimetric)
Excerpt: Les rats sont soumis à un régime alimentaire hypercholestérolémique pendant 4 jours. Les animaux sont traités simultanément par voie orale avec les différentes molécules. Le cinquième jour les animaux sont euthanasiés et la variation des taux de cholestérol plasmatique circulant analysée par méthode colorimétrique. Les activités sont exprimées en doses efficaces à 50% (DE50), l'unité est le mg/kg.

procollagène de type 1 = conditions: protein level and mRNA; cited from earlier work
glandes sébacées = conditions: primate, chronic treatment; cited from earlier work
[4] = intact human HepG2 cells; radiolabelled precursor, cholesteryl-oléate formed quantified; read-out: HepG2 CI50
[5] = read-out: HepG2 CI50; intact human HepG2 cells; radiolabelled precursor, cholesteryl-oléate formed quantified

Row | IC50 (ACAT [1]) [nM] | IC50 (ACAT [2]; [4]) [nM] | SMILES | Etude in vivo chez le rat DE50 (ACAT [3]) [mg/kg] | IC50 (ACAT [2]; [5]) [nM] | procollagène de type 1 (procollagène de type 1) | effet secondaire sur les glandes sébacées (glandes sébacées)
1 | 47 | 47 | CCCCCCCCCCCCSC(C)(C)C(=O)N1CCCCC1C(=O)Nc1cc(C)c(O)c(C)c1C (stereo not shown) [Exemple 1, 1-(2-(dodécylthio)-2-méthylpropanoyl)-N-(4-hydroxy-2,3,5-triméthyl-phényl)pipéridine-2-carboxamide] | 0.63 |  |  | 
2 | 81 | 48 | CCCCCCCCCCCCSC(C)(C)C(=O)N1CCCC1C(=O)Nc1cc(C)c(O)c(C)c1C (stereo not shown) [Exemple 2, 1-(2-(dodécylthio)-2-méthylpropanoyl)-N-(4-hydroxy-2,3,5-triméthyl-phényl)-pyrrolidine-2-carboxamide] | <0.63 |  |  | 
3 | 18 | 34 | CCCCCCCCCCCCSC(C)(C)C(=O)N1CCC[C@H]1C(=O)Nc1cc(C)c(O)c(C)c1C [Exemple 3, (S)-1-(2-(dodécylthio)-2-méthylpropanoyl)-N-(4-hydroxy-2,3,5-triméthyl-phényl)pyrrolidine-2-carboxamide] | <0.63 |  |  | 
4 | 71 | 27 | CCCCCCCCCCCCSC(C(=O)Nc1cc(C)c(O)c(C)c1C)c1ccsc1 (stereo not shown) [Exemple 6, 2-(dodécylthio)-N-(4-hydroxy-2,3,5-triméthylphényl)-2-(thiophén-3-yl)acétamide] | 0.17 |  |  | 
5 |  |  | CSc1cc(C)nc(SC)c1NC(=O)CN1CCN(CCSc2nc3ccccc3[nH]2)CC1 [K-604] |  |  | augmentation de procollagène de type 1 | 
6 |  |  | CCCCCCCCCCSC(C)(C)C(=O)N1CCC[C@H]1C(=O)Nc1cc(C)c(O)c(C)c1C [Exemple 4, (S)-1-(2-(décylthio)-2-méthylpropanoyl)-N-(4-hydroxy-2,3,5-triméthyl-phényl)-pyrrolidine-2-carboxamide] | 0.63 |  |  | 
7 | 34 | 39 | CCCCCCCCCCCCSC(C)(C)C(=O)N1CSC[C@H]1C(=O)Nc1cc(C)c(O)c(C)c1C [Exemple 5, (R)-3-(2-(dodécylthio)-2-méthylpropanoyl)-N-(4-hydroxy-2,3,5-triméthyl-phényl)thiazolidine-4-carboxamide] | <0.63 |  |  | 
8 |  |  | CC(C)c1cccc(C(C)C)c1NC(=O)NCC1(c2ccc(N(C)C)cc2)CCCC1.Cl [PD 132301-2] |  |  |  | atrophie des glandes sébacées
9 |  |  | CCCCCCCCN1CCc2c(C)c(CC(=O)O)c(C)c(NC(=O)C(C)(C)C)c21 [pactimibe] |  |  | n'ont pas cette propriété | 

Row | SMILES | IC50 (ACAT [1]) [nM] | IC50 (ACAT [2]; [4]) [nM] | Etude in vivo chez le rat DE50 (ACAT [3]) [mg/kg] | IC50 (ACAT [2]; [5]) [nM] | procollagène de type 1 (procollagène de type 1) | effet secondaire sur les glandes sébacées (glandes sébacées)
10 | CCCCCCCCCCCCSC(C(=O)Nc1c(C)c(C)c(N)c(C)c1C)c1cccs1 (stereo not shown) [Exemple 8, chlorhydrate du N-(4-amino-2,3,5,6-tétraméthylphényl)-2-(dodécylthio)-2-(thiophén-2-yl)acétamide] | 69 |  | 0.26 | 38 |  | 
11 | CCCCCCCCCCCCSC(C(=O)Nc1c(C)c(C)c(N)c(C)c1C)c1ccsc1 (stereo not shown) [Exemple 7, chlorhydrate du N-(4-amino-2,3,5,6-tétraméthylphényl)-2-(dodécylthio)-2-(thiophén-3-yl)acétamide] | 41 |  | 0.16 | 93 |  | 

From patent EP2891655A1, “Anilides-alkylthioethers as ACAT inhibitors for the treatment de dermatological diseases” (PIERRE FABRE MEDICAMENT, priority 2011, dated 2012)
